Data: patent US6545032B1, “Synthesis of [3,5,7]-H-imidazo[1,5-a] imidazol-2(3H)-one compounds” (Torrey Pines Institute for Molecular Studies, priority 1999, dated 2003)

How the values were obtained:
mu opiate receptor = molecular target: T1, mu opiate receptor (Rattus norvegicus, UniProt P33535); assay: Inhibition of [3H]DAMGO binding to the mu opiate receptor in rat brain homogenates; parameters: Mean: unit not given beside the values; conditions: 0.08 mg of compound per milliliter, 7 nM 3H-labeled DAMGO, rat brain membranes; for % Bound: [3H]DAMGO bound; for Mean: mean bound radioactivity of [3H]DAMGO; for Minus NSB*: mean minus non-specific binding; for % Inhibition: percent inhibition of DAMGO binding
T1 construct: from tissue; host or cells: rat brain membranes/homogenate
Experimental: The previously prepared [3,5,7]-1H-imidazo[1,5-a]-imidazol-2(3H)-one library of individual compounds was screened for the ability to inhibit the binding of [^3H] [D-Ala^2,MePhe^4,Gly^5-ol]enkephalin (DAMGO) that is known to bind specifically to the mu opiate receptor present in rat brain homogenates following literature procedures. [Dooley et al., Science, 266:2019(1994); U.S. Pat. No. 5,763,193.]
Preparation of rat brain membranes and the receptor binding assay were carried out as described in Dooley et al., Life Sci., 52:1509(1993). Each tube in the screening assay contained 0.08 mg of compound mixture per milliliter, 0.5 mL of membrane suspension (0.1 mg of protein), 7 nM ^3H-labeled DAMGO [specific activity 36 Ci/mmol, obtained from the National Institute on Drug Abuse (NIDA) repository through Chiron Mimotopes PeptideSystems (San Diego, Calif.) and […] of peptide mixture in 50 mM Tris-HCl buffer (pH 7.4). The final volume was 0.65 mL. The results of these screenings are shown in the table, below, wherein the “R” groups are as discussed for Example 1. The results are reported as percent inhibition of DAMGO binding.

kappa opiate receptor = molecular target: T2, kappa opiate receptor (Cavia porcellus, UniProt P41144); assay: Inhibition of tritiated U69,593 binding to the kappa opiate receptor in guinea pig brain homogenates; parameters: Mean: unit not given beside the values; conditions: 3 nm tritiated U69,593, guinea pig brain membranes; for % Bound: [3H]U69,593 bound; for % Inhibition: inhibition of [3H]U69,593 binding; for Mean: mean bound radioactivity of [3H]U69,593, 2.5 hours 25° C.; for Minus NSB: mean minus non-specific binding
T2 construct: guinea pig cortices and cerebella were homogenized in 40 mL of Buffer A; from tissue; host or cells: guinea pig cortices and cerebella, crude membrane suspension
Experimental: The above-prepared library of individual compounds was screened for the ability to inhibit the binding of tritiated Compound U69,593 that is known to bind specifically to the kappa opiate receptor present in guinea pig brain homogenates following literature procedures. [Dooley et al., J. Biol. Chem., 273(30) 18848-18856 (1998)]
Briefly, guinea pig cortices and cerebella were homogenized in 40 mL of Buffer A [50 mM Tris-HCl, pH 7.4] at 4° C. Homogenates were centrifuged [Beckman® J2-HC, 35, 300×g] for 10 minutes. The pellets were resuspended in fresh buffer and incubated at 37° C. for 40 minutes. Following incubation, the suspensions were centrifuged as before, the resulting pellets resuspended in 100 volumes of Tris buffer, and the suspensions combined. Membrane suspensions were prepared and used on the same day. Protein content of the crude homogenates was determined by the method of Bradford, Anal. Biochem., 72:248-252 (1976).
Each assay tube contained 0.5 mL of membrane suspension, 3 nm of tritiated Compound U69,593 [(5a,7a,8b)-(−)-N-methyl-N-(7-(1-pyrrolidinyl)-1-oxaspiro(4,5)dec-8-yl)-benzeneacetamide; Lahti et al., European J. Pharmacol., 109:281-284(199-85)] in a total volume of 0.65 mL. Assay tubes were incubated for 2.5 hours a 25° C. The assay was then filtered through GF-B filters on a Tomec™ harvester (Orange, Conn.). The filters were subsequently washed with 6 mL of 50 mM Tris-HC1, pH 7.4 at 4° C. Bound radioactivity was counted on a Wallace™ Beta-plate Liquid Scintillation Counter (Piscataway, N.J.). Unlabeled U50, 488 [(trans-(dl)-3,4-dichloro-N-methyl-N-[2-(1-pyrrolidinyl)cyclohexyl]-benzeneacetamide) methane sulfonate hydrate; Lahti et al., Life Sci., 31:2257-xx(1982) and Von Voightlander et al., J. Pharmacol. Exp. Ther., 224:7 (1983)] was used as a competitive inhibitor to generate a standard curve and determine nonspecific binding. The results of these assays are shown in the table, below, wherein the “R” groups are as discussed for Example 1.

T2 sequence (P41144 whole entry): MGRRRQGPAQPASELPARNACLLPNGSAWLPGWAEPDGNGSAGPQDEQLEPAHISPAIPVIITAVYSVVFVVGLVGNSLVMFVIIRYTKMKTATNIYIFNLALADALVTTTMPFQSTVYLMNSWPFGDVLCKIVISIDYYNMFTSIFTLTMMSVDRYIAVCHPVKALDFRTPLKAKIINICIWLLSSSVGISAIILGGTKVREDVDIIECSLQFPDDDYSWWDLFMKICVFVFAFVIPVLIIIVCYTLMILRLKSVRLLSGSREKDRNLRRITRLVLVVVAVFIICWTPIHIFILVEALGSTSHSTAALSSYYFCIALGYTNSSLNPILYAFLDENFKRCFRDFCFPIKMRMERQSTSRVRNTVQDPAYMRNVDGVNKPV
T1 sequence (P33535 whole entry): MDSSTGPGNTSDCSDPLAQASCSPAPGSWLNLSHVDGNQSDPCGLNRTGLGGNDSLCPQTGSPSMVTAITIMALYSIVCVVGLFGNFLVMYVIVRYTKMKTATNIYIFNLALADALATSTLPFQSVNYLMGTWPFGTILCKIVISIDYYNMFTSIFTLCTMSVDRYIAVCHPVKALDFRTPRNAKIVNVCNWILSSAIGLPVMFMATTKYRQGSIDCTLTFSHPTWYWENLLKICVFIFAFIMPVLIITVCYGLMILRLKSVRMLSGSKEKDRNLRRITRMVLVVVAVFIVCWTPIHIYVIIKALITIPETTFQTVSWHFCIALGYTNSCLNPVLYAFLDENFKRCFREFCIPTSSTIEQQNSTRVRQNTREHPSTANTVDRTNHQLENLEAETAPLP

Compound	% Bound (mu opiate receptor)	Mean (mu opiate receptor)	Minus NSB* (mu opiate receptor)	% Inhibition (mu opiate receptor)	% Bound (kappa opiate receptor)	% Inhibition (kappa opiate receptor)	Mean (kappa opiate receptor)	Minus NSB (kappa opiate receptor)
CCCCC1C(=O)Nc2c(C(C)C)nc(C)n21 (centres unmarked) [Pool 27]	59%	871.25	563.25	41%	79.855%	20.145%	1734.3	827.30
CC(C)c1nc(Cc2ccc(F)cc2)n2c1NC(=O)C2C(C)C (racemic) [Pool 75]	47%	758.2	450.20	53%	71.134%	28.866%	1643.95	736.95
CC(C)c1nc(CC2CC3CCC2C3)n2c1NC(=O)C2C(C)C (centres unmarked) [Pool 155]	64%	918.35	610.35	36%	69.040%	30.960%	1622.25	715.25
CC(C)c1nc(CCC2CCCCC2)n2c1NC(=O)C2C(C)C (centres unmarked) [Pool 148]	61%	890.8	582.80	39%	89.971%	10.029%	1839.1	932.10
Cc1nc(CC(C)C)c2n1C(C(C)C)C(=O)N2 (centres unmarked) [Pool 37]	66%	932.9	624.90	34%	62.973%	37.027%	1559.4	652.40
CCCCCCc1nc(C(C)C)c2n1C(C(C)C)C(=O)N2 (racemic) [Pool 122]	53%	817.3	509.30	47%	51.805%	48.195%	1443.7	536.70
Cc1nc(C(C)C)c2n1C(CC(C)C)C(=O)N2 (centres unmarked) [Pool 4]	70%	980.1	672.10	30%	95.420%	4.580%	1895.55	988.55
CC(C)c1nc(C2CCC2)n2c1NC(=O)C2C(C)C (centres unmarked) [Pool 144]	59%	867.3	559.30	41%	52.172%	47.828%	1447.5	540.50
CC(C)c1nc(C(C)(C)C)n2c1NC(=O)C2C(C)C (centres unmarked) [Pool 135]	65%	931.85	623.85	35%	69.170%	30.830%	1623.6	716.60
CCC(C)c1nc(C(C)C)c2n1C(C(C)C)C(=O)N2 (mixture of isomers) [Pool 124]	62%	901.85	593.85	38%	62.630%	37.370%	1555.85	648.85
CC(C)c1nc(CCCC2CCCCC2)n2c1NC(=O)C2C(C)C (centres unmarked) [Pool 140]	32%	615.55	307.55	68%	49.903%	50.097%	1424	517.00
CC(C)c1nc(CC2CCCCC2)n2c1NC(=O)C2C(C)C (centres unmarked) [Pool 138]	60%	877.8	569.80	40%	70.685%	29.315%	1639.3	732.30
Cc1nc(C(C)C)c2n1C(C)C(=O)N2 (centres unmarked) [Pool 18]	71%	989.15	681.15	29%	88.016%	11.984%	1818.85	911.85
CC(C)c1nc(CCC2CCCC2)n2c1NC(=O)C2C(C)C (centres unmarked) [Pool 146]	67%	945.85	637.85	33%	69.088%	30.912%	1622.75	715.75
CC(C)c1nc(Cc2cccc(C(F)(F)F)c2)n2c1NC(=O)C2C(C)C (racemic) [Pool 73]	69%	967.25	659.25	31%	78.205%	21.795%	1717.2	810.20
CCCC1C(=O)Nc2c(C(C)C)nc(C)n21 (centres unmarked) [Pool 28]	66%	932.9	624.90	34%	67.601%	32.399%	1607.35	700.35
